Results: PMC5615061, “Discovery of a Low Toxicity O-GlcNAc Transferase (OGT) Inhibitor by Structure-based Virtual Screening of Natural Products” (Scientific Reports, 2017)
Like-named read-outs stand apart in the source and are kept apart here.

Biological target: T1, OGT (O-GlcNAc transferase) (Homo sapiens, UniProt O15294)
T1 construct: full-length OGT, recombinant, purified; plasmid gift of D. J. Vocadlo
T1 sequence (O15294 2-1036 isoform O15294-3): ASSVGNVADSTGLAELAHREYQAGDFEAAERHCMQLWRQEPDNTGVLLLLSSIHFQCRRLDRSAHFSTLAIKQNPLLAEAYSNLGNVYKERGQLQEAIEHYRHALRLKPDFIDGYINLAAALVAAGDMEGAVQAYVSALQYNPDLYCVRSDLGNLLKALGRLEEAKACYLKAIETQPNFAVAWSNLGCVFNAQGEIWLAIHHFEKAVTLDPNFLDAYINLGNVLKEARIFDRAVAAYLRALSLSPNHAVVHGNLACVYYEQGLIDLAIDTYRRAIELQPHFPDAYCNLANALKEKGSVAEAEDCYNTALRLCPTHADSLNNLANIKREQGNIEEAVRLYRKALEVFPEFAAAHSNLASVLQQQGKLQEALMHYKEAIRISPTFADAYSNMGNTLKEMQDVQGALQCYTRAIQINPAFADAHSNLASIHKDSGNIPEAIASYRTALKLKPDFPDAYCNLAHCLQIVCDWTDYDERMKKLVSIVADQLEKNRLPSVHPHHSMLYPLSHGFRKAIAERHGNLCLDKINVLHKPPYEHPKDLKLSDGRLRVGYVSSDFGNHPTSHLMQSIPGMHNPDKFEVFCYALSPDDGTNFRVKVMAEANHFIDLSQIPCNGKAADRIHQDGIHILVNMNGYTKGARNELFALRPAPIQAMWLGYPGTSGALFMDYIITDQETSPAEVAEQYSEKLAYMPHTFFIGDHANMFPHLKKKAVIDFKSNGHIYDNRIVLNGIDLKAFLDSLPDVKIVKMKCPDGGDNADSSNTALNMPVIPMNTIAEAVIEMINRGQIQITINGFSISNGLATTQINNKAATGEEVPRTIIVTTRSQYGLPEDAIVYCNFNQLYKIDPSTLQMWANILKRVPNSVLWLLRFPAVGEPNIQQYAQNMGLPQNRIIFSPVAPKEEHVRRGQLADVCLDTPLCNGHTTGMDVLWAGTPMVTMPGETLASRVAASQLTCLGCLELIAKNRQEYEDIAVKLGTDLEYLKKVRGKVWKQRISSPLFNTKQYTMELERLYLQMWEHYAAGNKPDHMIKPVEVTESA
Test: UDP-Glo glycosyltransferase assay, luminescence
Assay type: biochemical

O=C1C[C@@H](c2ccc(O)c(-c3c(O)cc(O)c4c3O[C@H](c3ccc(O)cc3)CC4=O)c2)Oc2cc(O)cc(O)c21 [L01]
IC50 (250 nM OGT, 125 μM CKII peptide, 40 μM UDP-GlcNAc, pH 7.4, time-dependent, not fully UDP-GlcNAc competitive): 21.8 µM

COc1ccccc1[C@@H](NS(=O)(=O)c1ccc2[nH]c(=O)ccc2c1)C(=O)N(Cc1ccco1)Cc1cccs1 [OSMI-1]
IC50: 3.5 µM
